Patent US8268792B2, “Use of an active ingredient combination that contains hydroxystilbene for preventing and/or treating diseases” (Carl-Friedrich Spaich, priority 2005, dated 2012)
Entries after “also recorded” stand apart in the source; their conditions may differ.

Columns and labels:
[1] = system: transcription factor NF-κB; settings: cited from earlier work
[2] = system: AR-dependent gene expression; settings: depending on the concentration; cited from earlier work
HL60 leukemia cells = settings: cited from earlier work
[3] = system: hormone-sensitive and -insensitive prostate cancer cells; settings: pure resveratrol; cited from earlier work
[4] = Dissolving tests with ERr 731® in ethanol and glycerol; type: physicochemical
[5] = In vivo accumulation of ERr 731® ingredients in dog plasma (100, 300, 1000 mg/kg/day); design: species or system dog (pure-bred beagles); settings: male and female dogs, ERr 731® 100, 300, 1000 mg/kg body weight/day, day 1
Method: (§1) These plasma samples were processed as follows: 500 μl of plasma were mixed with 25 μl of an internal standard working solution (2.5 ng/μl rhaponticin or rhapontigenin in methanol) and then mixed with 500 μl of isotonic NaCl solution and 2.5 ml of diethyl ether/butanol (9/1; v/v). After shaking and centrifugation (10 minutes at 4600 rpm), about 2 ml of the supernatant were removed and dried under a stream of nitrogen (at 60° C.). The pellet was taken up in 50 μl of methanol. Addition of 200 μl of distilled water was followed by renewed mixing, and 200 μl were pipetted into autosampler tubes (light-protected). 30 μl of the samples were injected for analysis into an LC-MS/MS system (PE Sciex API 3000). Chromatographic separation of the analytes took place on a Phenomenex Polymer X column with a gradient of an ammonium buffer solution and an acetonitrile/methanol mixture as mobile phase.
On day 1, 5 ml of blood were taken from the animals after 0, 0.5, 1, 2, 4, 8 and 24 hours in each case, and plasma was obtained. The analysis as described in section a) was carried out thereon in order to detect rhaponticin, deoxyrhaponticin, rhapontigenin, deoxyrhapontigenin, resveratrol and piceatannol in blood. The results of the test are depicted in FIG. 2a.

[6] = Pharmacokinetics of ERr 731® ingredients in subject after oral intake (plasma, LC-MS/MS); type: in vivo, human; settings: volunteer
Method: Subsequently, 10 ml of blood was taken at various times (as indicated in FIG. 1) and the plasma was obtained by centrifugation.
as §1

[7] = system: bacteria of the human intestinal tract; settings: cited from earlier work
[8] = target: T1, estrogen receptor β (ERβ) (Homo sapiens, UniProt Q92731); experiment: ERβ/mC3-luciferase transactivation in transfected HEC-1B cells; type: cell-based; settings: HEC-1B cells cotransfected with hERβ and mC3-Luc, 24 hours incubation
T1 construct: expressed in transfected cells; host or cells: HEC-1B human endometrial adenocarcinoma cells (no endogenous ERα or ERβ)
T1 sequence (Q92731 whole entry): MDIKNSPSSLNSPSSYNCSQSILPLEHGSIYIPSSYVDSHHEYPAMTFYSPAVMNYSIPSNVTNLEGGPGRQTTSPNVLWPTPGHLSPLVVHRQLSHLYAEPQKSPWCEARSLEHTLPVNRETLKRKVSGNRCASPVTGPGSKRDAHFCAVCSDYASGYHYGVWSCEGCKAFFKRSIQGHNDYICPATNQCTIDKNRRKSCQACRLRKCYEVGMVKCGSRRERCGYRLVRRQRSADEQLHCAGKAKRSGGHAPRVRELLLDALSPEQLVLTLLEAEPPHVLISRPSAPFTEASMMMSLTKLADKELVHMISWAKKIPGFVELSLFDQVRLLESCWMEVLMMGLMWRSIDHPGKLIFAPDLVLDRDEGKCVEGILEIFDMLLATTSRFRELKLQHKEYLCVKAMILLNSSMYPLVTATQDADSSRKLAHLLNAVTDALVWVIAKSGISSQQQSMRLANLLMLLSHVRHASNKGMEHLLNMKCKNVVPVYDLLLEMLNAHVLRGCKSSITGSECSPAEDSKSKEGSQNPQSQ
From the text: They therefore represent a possible way of investigating, in a human and endometrial context, ligand-dependent effects of substances on the transactivation mechanisms in relation to different receptor subtypes and different estrogen-responsive promoters.
An established ERβ/mC3-luciferase system was employed. For this purpose, HEC-1B cells were applied in 24-well plates with a density of 95 000 cells/well (in Dulbecco's modified Essential Medium (DMEM/F12)). The next day, they were cotransfected with an ERβ-containing construct (hERβ/pSG2) and a triple-ERE-containing promoter/luciferase construct (mC3-Luc/pGL2) (Hillisch et al. Dissecting physiological roles of estrogen receptor alpha and beta with potent selective ligands from structure-based design. Mol. Endocrinol. 2004 July; 18:1599-609). The transient transfection took place using DOTAP (N-[1-(2,3-dioleoyloxy)]-N,N,N-trimethylammoniumpropane methylsulfate, Roth) as described by the manufacturer.
After 24 hours, the cells were treated with appropriate concentrations of the substances or substance mixtures to be investigated. […] The incubation time was 24 hours. The cells were then lysed. The Luciferase Assay® kit (Promega) was used to determine the luciferase activity on the one hand, and the BCA® kit (Sigma) was used to determine the protein content on the other hand. […]

[9] = Test A: 200 mg of dry extract in 50 ml of glycerol R
[10] = Test B: 200 mg of dry extract in 50 ml of ethanol 30% R
[11] = Test C: 200 mg of dry extract in 50 ml of ethanol 50% R
[12] = Test D: 200 mg of dry extract in 50 ml of ethanol 86% R

Structure (SMILES)	effect on transcription factor NF-κB [1]	content found dissolved [4, 9]	dissolved, of theory [4, 9]	content found dissolved [4, 10]	dissolved, of theory [4, 10]	content found dissolved [4, 11]	dissolved, of theory [4, 11]	content found dissolved [4, 12]	dissolved, of theory [4, 12]	accumulation (AUC 0-24 h) in dog plasma [5]	other results
Oc1cc(O)cc(/C=C/c2ccc(O)c(O)c2)c1 [piceatannol]	inhibitory effect	–	–	–	–	–	–	–	–	–	–
Oc1ccc(C=Cc2cc(O)cc(O)c2)cc1 [resveratrol]	–	–	–	–	–	–	–	–	–	–	AR-dependent gene expression [2]: an increase or inhibition of AR-dependent gene expression was observed; apoptotic effect on HL60 leukemia cells (HL60 leukemia cells): apoptotic effect; apoptotic effect on prostate cancer cells [3]: apoptotic effect
COc1ccc(C=Cc2cc(O)cc(O[C@@H]3O[C@H](CO)[C@@H](O)[C@H](O)[C@H]3O)c2)cc1 [deoxyrhaponticin]	–	27.1% deoxyrhaponticin	(90.6% of theory)	25.2% deoxyrhaponticin	(84.2% of theory)	29.0% deoxyrhaponticin	(97.0% of theory)	29.5% deoxyrhaponticin	(98.7% of theory)	dose-dependent accumulation	–
COc1ccc(C=Cc2cc(O)cc(O[C@@H]3O[C@H](CO)[C@@H](O)[C@H](O)[C@H]3O)c2)cc1O [rhaponticin, 3,3′,5-Trihydroxy-4′-methoxystilbene 3-O-β-D-glucopyranoside]	inactive	55.1% rhaponticin	(89.0% of theory)	52.2% rhaponticin	(84.3% of theory)	58.8% rhaponticin	(95.0% of theory)	59.8% rhaponticin	(96.6% of theory)	dose-dependent accumulation	time of maximum in the blood ([6]; oral 40 mg ERr 731®): 3 to 4 h; detection in the blood (plasma) ([6]; oral 10 tablets = 40 mg ERr 731®): detected in the blood; degradation by intestinal bacteria [7]: degraded by bacteria of the human intestinal tract to rhapontigenin
COc1ccc(C=Cc2cccc(O)c2)cc1O [deoxyrhapontigenin, 3′,5-Dihydroxy-4′-methoxystilbene]	–	–	–	–	–	–	–	–	–	undetectable	activation of ERβ (relative luciferase activity vs DMSO control) [8]: activate the ERβ dose-dependently; also recorded: effective only at higher concentrations
